A value given as a limit tells only on which side of the number the result lay.

For one assay, the target named is T1, SCD-1 (Homo sapiens, UniProt O00767).
T1 construct: 50 μg of protein from a HepG2 cell P2 pellet; endogenous in cells; host or cells: HepG2 cells (P2 pellet)
T1 sequence (O00767 1-359): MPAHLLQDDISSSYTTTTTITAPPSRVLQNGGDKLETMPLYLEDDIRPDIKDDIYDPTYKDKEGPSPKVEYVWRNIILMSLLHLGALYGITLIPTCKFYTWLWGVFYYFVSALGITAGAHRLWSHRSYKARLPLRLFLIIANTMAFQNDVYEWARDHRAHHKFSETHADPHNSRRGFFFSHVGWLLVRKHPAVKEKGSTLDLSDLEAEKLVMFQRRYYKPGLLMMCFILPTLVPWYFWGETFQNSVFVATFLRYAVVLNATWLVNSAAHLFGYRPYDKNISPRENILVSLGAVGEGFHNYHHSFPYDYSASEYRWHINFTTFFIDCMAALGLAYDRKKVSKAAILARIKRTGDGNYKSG
The assay can be described thus: Stearoyl-CoA desaturase assay (HepG2 cell P2 pellet). To be noted: Table 1, compounds of formula (Ia); protein from HepG2 cell P2 pellet, 20 μM stearoyl-CoA, 15 min at 25° C.; read-out: Ave IC50. In kind it is biochemical. The procedure: Stearoyl-CoA desaturase assays were performed in according to Talamo and Bloch. […] Assays were run in triplicate in 100-μl volumes of 100 mM TrisHCl, pH 7.3, containing 20 μM stearoyl-CoA, 2 mM β-NADH, and 50 μg of protein from a HepG2 cell P2 pellet. Since SCD-1 is the only isoform of SCD expressed in these cells, the assay is specific for SCD-1 with these cells as the source of enzyme. Reaction mixtures were incubated fifteen minutes at 25° C. and reactions were then stopped with a volume of trichloroacetic acid giving a final concentration of 0.2%. After five minutes, a 90-μl volume was transferred to a Millipore Multiscreen HTS 96-well filtration plate (MSHVN4B50) containing 125 μl of 10% charcoal in each well, to which vacuum had been previously applied. Plates were shaken fifteen minutes and then filtered into a collection plate. Fifty-μI volumes of filtrate were transferred to another plate containing 150 μl of MicroScint 40 for counting on a TopCount scintillation counter.
On to `CC(=O)NCC(=O)N1CCC2(CC1)CCN(Cc1ccc(Br)cc1)c1ccccc1O2` [Compound 40], for which the IC50 was in the range of 500 to 10000 nM.

Take `COc1ccccc1CN1CCC2(CCN(C(=O)CNC(C)=O)CC2)Oc2ccccc21` [Compound 24]: the IC50 was in the range of 500 to 10000 nM.

`CCc1ccc(CN2CCC3(CCN(C(=O)CNC(C)=O)CC3)Oc3c(F)cccc32)cc1` [Compound 47]: the IC50 lay within 500 to 10000 nM.

On to `CC(=O)NCC(=O)N1CCC2(CC1)CCN(Cc1ccccc1C)c1ccccc1O2` [Compound 41], for which the IC50 is 500 to 10000 nM.

Regarding `COC(=O)c1cccc(CN2CCC3(CCN(C(=O)CNC(C)=O)CC3)Oc3ccccc32)c1` [Compound 25], the IC50 lay in the range of 500 to 10000 nM.

With `CC(=O)NCC(=O)N1CCC2(CC1)CCN(Cc1ccc(C#N)cc1)c1ccccc1O2` [Compound 23], the IC50 is greater than 10000 nM.

Still in this assay, the particulars now being: Table 2, compounds of formula (Ib); protein from HepG2 cell P2 pellet, 20 μM stearoyl-CoA, 15 min at 25° C.; read-out: Ave IC50.
Regarding `O=C(NCCCO)c1cnc(N2CCC3(CC2)CCN(Cc2cccc(C(F)(F)F)c2)c2cccc(F)c2O3)s1` [Compound 131], the half-inhibitory concentration (IC50) was in the range of 0.5 to 49 nM.

For `CC(C)(C)c1ccc(CN2CCC3(CCN(c4ncc(C(=O)O)s4)CC3)Oc3ccccc32)cc1` [Compound 64], the 50% inhibitory concentration (IC50) fell in the range of 50 to 499 nM.

For the compound `O=C(NCCCO)c1cnc(N2CCC3(CC2)CCN(Cc2cccc(C(F)(F)F)c2)c2ccccc2O3)s1` [Compound 62], the IC50 is 0.5 to 49 nM.

For `O=C(O)CCNC(=O)c1cnc(N2CCC3(CC2)CCN(Cc2cccc(C(F)(F)F)c2)c2ccccc2O3)s1` [Compound 129], the 50% inhibitory concentration (IC50) was in the range of 0.5 to 49 nM.

In the case of `CC(C)(C)c1ccc(CN2CCC3(CCN(c4ncc(C(=O)NCCC(=O)O)s4)CC3)Oc3c(F)cccc32)cc1` [Compound 123], the half-maximal inhibitory concentration (IC50) was in the range of 0.5 to 49 nM.

For `FC(F)(F)c1cccc(CN2CCC3(CCN(c4ncc(Br)s4)CC3)Oc3ccccc32)c1` [Compound 53], the IC50 lay in the range of 500 to 10000 nM.

Consider `CC(C)(C)c1ccc(CN2CCC3(CCN(c4ncc(C(=O)NCc5ccccc5)s4)CC3)Oc3ccccc32)cc1` [Compound 67], for which the half-inhibitory concentration (IC50) is 500 to 10000 nM.

On to `CC(C)(C)c1ccc(CN2CCC3(CCN(c4ncc(-c5ccc(C#N)cc5)s4)CC3)Oc3ccccc32)cc1` [Compound 137], for which the IC50 was 500 to 10000 nM.

On to `CC(C)(C)c1ccc(CN2CCC3(CCN(c4ncc(C(=O)NC5CC5)s4)CC3)Oc3ccccc32)cc1` [Compound 65], for which the IC50 lay in the range of 50 to 499 nM.

For `Cc1cc(CNC(=O)c2cnc(N3CCC4(CC3)CCN(Cc3ccc(C(C)(C)C)cc3)c3cccc(F)c3O4)s2)no1` [Compound 97], the 50% inhibitory concentration (IC50) was 500 to 10000 nM.

`O=C(NCCC1CC1)c1cnc(N2CCC3(CC2)CCN(Cc2cccc(C(F)(F)F)c2)c2ccccc2O3)s1` [Compound 51]: the half-maximal inhibitory concentration (IC50) was in the range of 500 to 10000 nM.

On to `Cn1cnc(-c2cnc(N3CCC4(CC3)CCN(Cc3ccc(C(C)(C)C)cc3)c3ccccc3O4)s2)n1` [Compound 73], for which the IC50 lay in the range of 0.5 to 49 nM.

Consider `CC(C)(C)c1ccc(CN2CCC3(CCN(c4ncc(C(=O)NCC5CCCO5)s4)CC3)Oc3c(F)cccc32)cc1` (centres unmarked) [Compound 79], for which the concentration for half-maximal inhibition (IC50) was in the range of 50 to 499 nM.

On to `CC(C)(C)c1ccc(CN2CCC3(CCN(c4ncc(C(=O)NCCCO)s4)CC3)Oc3c(F)cccc32)cc1` [Compound 96], for which the IC50 was 0.5 to 49 nM.

On to `C[C@H](O)CNC(=O)c1cnc(N2CCC3(CC2)CCN(Cc2ccc(C(C)(C)C)cc2)c2cccc(F)c2O3)s1` [Compound 110], for which the half-maximal inhibitory concentration (IC50) was 0.5 to 49 nM.

For `CC(C)(C)c1ccc(CN2CCC3(CCN(c4ncc(C(=O)NCC5OCCO5)s4)CC3)Oc3c(F)cccc32)cc1` [Compound 88], the 50% inhibitory concentration (IC50) fell in the range of 0.5 to 49 nM.

On to `CC(C)(C)c1ccc(CN2CCC3(CCN(c4ncc(C(=O)NCCc5cccs5)s4)CC3)Oc3c(F)cccc32)cc1` [Compound 83], for which the IC50 was 500 to 10000 nM.

For `CN(C)CCCNC(=O)c1cnc(N2CCC3(CC2)CCN(Cc2ccc(C(C)(C)C)cc2)c2cccc(F)c2O3)s1` [Compound 107], the 50% inhibitory concentration (IC50) was in the range of 500 to 10000 nM.

`COC(=O)c1cnc(N2CCC3(CC2)CCN(Cc2cccc(C(F)(F)F)c2)c2ccccc2O3)s1` [Compound 50, methyl 2-(5-(3-(trifluoromethyl)benzyl)-4,5-dihydro-3H-spiro[benzo[b][1,4]oxazepine-2,4′-piperidine]-1′-yl)thiazole-5-carboxylate]: the IC50 was in the range of 0.5 to 49 nM.

In the case of `CC(C)(C)c1ccc(CN2CCC3(CCN(c4ncc(C(=O)O)s4)CC3)Oc3c(F)cccc32)cc1` [Compound 74], the half-inhibitory concentration (IC50) is 0.5 to 49 nM.

In the case of `CC(C)CCNC(=O)c1cnc(N2CCC3(CC2)CCN(Cc2ccc(C(C)(C)C)cc2)c2cccc(F)c2O3)s1` [Compound 109], the IC50 fell in the range of 500 to 10000 nM.

For `CC(C)(C)c1ccc(CN2CCC3(CCN(c4ncc(C(=O)NCCCCCC(=O)O)s4)CC3)Oc3c(F)cccc32)cc1` [Compound 124], the IC50 was 500 to 10000 nM.

Regarding `CC(C)(C)c1ccc(CN2CCC3(CCN(c4ncc(C(=O)NCC5CCCO5)s4)CC3)Oc3c(F)cccc32)cc1` (centres unmarked) [Compound 89], the half-inhibitory concentration (IC50) is 50 to 499 nM.

In the case of `O=C(c1cnc(N2CCC3(CC2)CCN(Cc2cccc(C(F)(F)F)c2)c2ccccc2O3)s1)N1CCCC1` [Compound 56], the IC50 was 500 to 10000 nM.

Staying with this assay, now noted: Table 3, compounds of formula (Ic); protein from HepG2 cell P2 pellet, 20 μM stearoyl-CoA, 15 min at 25° C.; read-out: Ave IC50.
For `O=C(O)c1ccc(N2CCC3(CC2)CCN(Cc2cccc(C(F)(F)F)c2)c2ccccc2O3)nn1` [Compound 172, 6-(5-(3-(trifluoromethyl)benzyl)-4,5-dihydro-3H-spiro[benzo-[b][1,4]oxazepine-2,4′-piperidine]-1′-yl)pyridazine-3-carboxylic Acid], the half-maximal inhibitory concentration (IC50) was in the range of 500 to 10000 nM.

As to `O=C(NCCC1CC1)c1ccc(N2CCC3(CC2)CCN(Cc2cccc(C(F)(F)F)c2)c2cccc(F)c2O3)nn1` [Compound 175], the 50% inhibitory concentration (IC50) is 0.5 to 49 nM.

As to `O=C(NCCc1ccncc1)c1ccc(N2CCC3(CC2)CCN(Cc2cccc(C(F)(F)F)c2)c2ccccc2O3)nn1` [Compound 165], the IC50 was in the range of 0.5 to 49 nM.

With `O=C(NCCc1c[nH]cn1)c1ccc(N2CCC3(CC2)CCN(Cc2cccc(C(F)(F)F)c2)c2ccccc2O3)nn1` [Compound 162], the IC50 is 0.5 to 49 nM.

With `CCc1ccc(CN2CCC3(CCN(c4ccc(C(=O)NCCC5CC5)nn4)CC3)Oc3ccccc32)cc1` [Compound 176], the half-maximal inhibitory concentration (IC50) lay within 0.5 to 49 nM.

`O=C(NCCC1CC1)c1ccc(N2CCC3(CC2)CCN(Cc2cccc(C(F)(F)F)c2)c2ccccc2O3)nn1` [Compound 151]: the concentration for half-maximal inhibition (IC50) lay in the range of 0.5 to 49 nM.

For the compound `CC(C)(C)CCNC(=O)c1ccc(N2CCC3(CC2)CCN(Cc2cccc(C(F)(F)F)c2)c2ccccc2O3)nn1` [Compound 159], the IC50 was in the range of 500 to 10000 nM.

For the compound `O=C(NCCC1CC1)c1ccc(N2CCC3(CC2)CCN(Cc2ccc(Oc4ccccc4)cc2)c2ccccc2O3)nn1` [Compound 183], the IC50 was 0.5 to 49 nM.

In the case of `NC(=O)c1ccc(N2CCC3(CC2)CCN(Cc2cccc(C(F)(F)F)c2)c2ccccc2O3)nn1` [Compound 164], the 50% inhibitory concentration (IC50) fell in the range of 0.5 to 49 nM.

As to `CC(C)(C)c1ccc(CN2CCC3(CCN(c4ccc(C(=O)NCCC5CC5)nn4)CC3)Oc3c(F)cccc32)cc1` [Compound 150], the IC50 is 50 to 499 nM.

With `CCc1ccc(CN2CCC3(CCN(c4ccc(C(=O)NCCC5CC5)cn4)CC3)Oc3ccccc32)cc1` [Compound 177], the IC50 is 50 to 499 nM.

On to `CC(C)(C)c1ccc(CN2CCC3(CCN(c4ccc(C(=O)O)cn4)CC3)Oc3c(F)cccc32)cc1` [Compound 145], for which the IC50 lay within 50 to 499 nM.

For `CC(C)CCNC(=O)c1ccc(N2CCC3(CC2)CCN(Cc2cccc(C(F)(F)F)c2)c2ccccc2O3)nn1` [Compound 160], the IC50 lay in the range of 50 to 499 nM.

As for `COC(=O)CCNC(=O)c1ccc(N2CCC3(CC2)CCN(Cc2cccc(C(F)(F)F)c2)c2ccccc2O3)nn1` [Compound 166], the IC50 lay within 0.5 to 49 nM.

What is called IC50 is the concentration at which inhibition is half-maximal.

These data come from patent publication US20120220567A1, “BENZO-FUSED OXAZEPINE COMPOUNDS AS STEAROYL-COENZYME A DELTA-9 DESATURASE INHIBITORS” (priority 2009, published 2012).
